Experimental findings from ChEMBL document CHEMBL4184107, “Structure based design of nicotinamide phosphoribosyltransferase (NAMPT) inhibitors from a phenotypic screen” (Bioorg Med Chem Lett, 2018) are described below.

Some results are limits rather than exact numbers.

Series [1] can be described thus: Permeability of the compound by PAMPA. It is filed as ADME. On the technique in general: The PAMPA barrier holds no transporters, so it reflects passive diffusion.
Series [2] can be described thus: Clearance in mouse liver microsomes. It is filed as ADME, microsome. Particulars: read-out: CLH. A general note: Liver microsomes are vesicles of endoplasmic reticulum, rich in cytochrome P450 enzymes.
The nature of series [3]: Half life in nude mouse at 1 mg/kg, iv by HPLC-MS/MS analysis. It is filed as ADME, organism-based. As to conditions: in vivo.
Series [4] in a line: Clearance in nude mouse at 1 mg/kg, iv by HPLC-MS/MS analysis. It is filed as ADME, organism-based. As to conditions: in vivo.
Series [5] in a line: Volume of distribution at steady state in nude mouse at 1 mg/kg, iv by HPLC-MS/MS analysis. It is filed as ADME, organism-based. As to conditions: in vivo, read-out: Vdss.
Series [6] in a line: Cmax in nude mouse at 10 mg/kg, po by HPLC-MS/MS analysis. It is filed as ADME, organism-based. More on the design: dose 10 mg/kg, route oral. Particulars: in vivo.
A short description of series [7]: Tmax in nude mouse at 10 mg/kg, po by HPLC-MS/MS analysis. It is filed as ADME, organism-based. Particulars: in vivo.
Series [8] is described as follows: Oral bioavailability in nude mouse at 10 mg/kg by HPLC-MS/MS analysis. It is filed as ADME, organism-based. As to conditions: in vivo.
Series [9] can be described thus: AUC in nude mouse at 1 mg/kg, iv by HPLC-MS/MS analysis. It is filed as ADME, organism-based. As to conditions: in vivo.
Series [10] is described as follows: AUC in nude mouse at 10 mg/kg, po by HPLC-MS/MS analysis. It is filed as ADME, organism-based. Particulars: in vivo.
Series [11] can be described thus: Half life in mouse microsomes. It is filed as ADME, Microsome.
Series [12] is described as follows: AUC in nude mouse at 15 mg/kg, po by HPLC-MS/MS analysis. It is filed as ADME, organism-based. Particulars: in vivo.
Series [13] can be described thus: Cmax in nude mouse at 15 mg/kg, po by HPLC-MS/MS analysis. It is filed as ADME, organism-based. Set-up: dose 15 mg/kg, route oral. Particulars: in vivo.
The nature of series [14]: Tmax in nude mouse at 15 mg/kg, po by HPLC-MS/MS analysis. It is filed as ADME, organism-based. Particulars: in vivo.

Consider `C[C@H](NC(=O)C1CCOCC1)c1ccc(NC(=O)[C@H]2C[C@@H]2c2cccnc2)cc1`, for which the permeability result in series [1] is “Impermeable”. Also, in series [2], the microsomal CLint was 25.1 µL/min/mg.
As for `C[C@H](NC(=O)c1ccccn1)c1ccc(NC(=O)[C@H]2C[C@@H]2c2cccnc2)cc1`, the permeability result in [1] was “Permeable”. Moreover, the microsomal CLint in [2] is less than 3.42 µL/min/mg.
Turning to `C[C@H](NC(=O)c1ccc(F)cc1)c1ccc(NC(=O)[C@H]2C[C@@H]2c2cccnc2)cc1`, in series [1], the permeability entry was “Permeable”. For the same molecule, the microsomal CLint in series [2] was 13.7 µL/min/mg.
With `C[C@H](NC(=O)[C@@H]1CCCN1C)c1ccc(NC(=O)[C@H]2C[C@@H]2c2cccnc2)cc1`, the permeability entry in [1] is given as “Permeable”. The microsomal CLint in series [2] was 65.4 µL/min/mg.
Take `C[C@H](NC(=O)c1ccccc1)c1ccc(NC(=O)[C@H]2C[C@@H]2c2cccnc2)cc1`: the half-life (commonly the time in which the quantity being followed falls by half) in series [3] is 1.5 h. The clearance – broadly, the volume of plasma or blood freed of the substance per unit of time – in series [4] came out at 6.8 mL/min/kg. In addition, the Vd in [5] came out at 0.5 L/kg. Also, the peak level in [6] (Cmax) was 12.7 µM. The time of peak concentration (Tmax) (usually the time at which the peak concentration occurs) in series [7] turned out to be 0.5 h. Further, in series [8], the bioavailability (commonly the share of a dose that reaches the circulation, judged against a reference dose that is usually intravenous) was found to be 31%. Also, the figures for the AUC in [9] and in series [10] were 6.18 µM·h and 19.2 µM·h, respectively. The permeability entry in [1] is given as “Permeable”. Also, the microsomal CLint in series [2] amounted to 148 µL/min/mg.
For `COCC(=O)N[C@@H](C)c1ccc(NC(=O)[C@H]2C[C@@H]2c2cccnc2)cc1`, the permeability entry in series [1] is on record as “Impermeable”. The microsomal CLint in series [2] came to 43.2 µL/min/mg.
As to `C[C@H](NC(=O)c1ccc(C#N)cc1)c1ccc(NC(=O)[C@H]2C[C@@H]2c2cccnc2)cc1`, the permeability result in [1] is “Impermeable”. Besides, the microsomal CLint in series [2] amounted to 53 µL/min/mg.
Take `C[C@H](NC(=O)c1ccc(CN2CCOCC2)cc1)c1ccc(NC(=O)[C@H]2C[C@@H]2c2cccnc2)cc1`: in series [1], the permeability result is “Impermeable”. Also, the half-life in series [11] was found to be 7.67 h.
Regarding `C[C@H](NC(=O)c1ncccn1)c1ccc(NC(=O)[C@H]2C[C@@H]2c2cccnc2)cc1`, the permeability result in series [1] is on record as “Permeable”. For the same molecule, the microsomal CLint in series [2] was determined as 38.4 µL/min/mg.
`CCC(=O)N[C@@H](C)c1ccc(NC(=O)[C@H]2C[C@@H]2c2cccnc2)cc1`: the permeability result in series [1] is recorded as “Impermeable”. In series [11], this molecule had a half-life of 35 h.
Consider `C[C@H](NC(=O)CC(F)(F)F)c1ccc(NC(=O)[C@H]2C[C@@H]2c2cccnc2)cc1`, for which the permeability result in series [1] was “Impermeable”. For the same molecule, the microsomal CLint in series [2] was 83.7 µL/min/mg.
For `O=C(NCc1ccc(S(=O)(=O)c2cccc(Cl)c2)cc1)c1cc2cnccc2[nH]1`, the AUC (usually concentration integrated over time) in [12] was 9.2 µM·h. Further, in series [13], the maximum concentration (Cmax) (usually the highest concentration seen after dosing) turned out to be 2.07 µM. For the same molecule, in series [14], the time of peak concentration (Tmax) turned out to be 1 h.
